Source: ChEMBL document CHEMBL5579843, “Multimechanism biological profiling of tetrahydro-β-carboline analogues as selective HDAC6 inhibitors for the treatment of Alzheimer's disease” (Eur J Med Chem, 2024)
Activity calls are given as the source filed them. The calls are words filed in the database; no cut-off is given here.

Experiments:
[1] = Antioxidant activity assessed as DPPH scavenging activity incubated for 0.5 hrs by absorbance based assay; type: functional
[2] = Antioxidant activity assessed as ABTS radical scavenging activity measured after 30 mins by absorbance based analysis; type: functional
[3] = system: PC-12; test: Neuroprotective activity against H2O2-induced oxidative damage in rat PC-12 cells assessed as increase in cell survival at 10 uM pretreated for 4 hrs followed by 800 uM H2O2 stimulation and measured after 24 hrs by MTT assay; type: functional, cell-based; settings: time 28.0 hrs
[4] = system: SH-SY5Y; test: Neuroprotective activity against H2O2-induced oxidative damage in human SH-SY5Y cells assessed as increase in cell survival at 10 uM pretreated for 4 hrs followed by 200 uM H2O2 stimulation and measured after 24 hrs by MTT assay; type: functional, cell-based; settings: time 28.0 hrs
[5] = biological target: T1, Protein deacetylase HDAC6 (Homo sapiens, UniProt Q9UBN7); test: Inhibition of HDAC6 (unknown origin)
T1 sequence (Q9UBN7 whole entry): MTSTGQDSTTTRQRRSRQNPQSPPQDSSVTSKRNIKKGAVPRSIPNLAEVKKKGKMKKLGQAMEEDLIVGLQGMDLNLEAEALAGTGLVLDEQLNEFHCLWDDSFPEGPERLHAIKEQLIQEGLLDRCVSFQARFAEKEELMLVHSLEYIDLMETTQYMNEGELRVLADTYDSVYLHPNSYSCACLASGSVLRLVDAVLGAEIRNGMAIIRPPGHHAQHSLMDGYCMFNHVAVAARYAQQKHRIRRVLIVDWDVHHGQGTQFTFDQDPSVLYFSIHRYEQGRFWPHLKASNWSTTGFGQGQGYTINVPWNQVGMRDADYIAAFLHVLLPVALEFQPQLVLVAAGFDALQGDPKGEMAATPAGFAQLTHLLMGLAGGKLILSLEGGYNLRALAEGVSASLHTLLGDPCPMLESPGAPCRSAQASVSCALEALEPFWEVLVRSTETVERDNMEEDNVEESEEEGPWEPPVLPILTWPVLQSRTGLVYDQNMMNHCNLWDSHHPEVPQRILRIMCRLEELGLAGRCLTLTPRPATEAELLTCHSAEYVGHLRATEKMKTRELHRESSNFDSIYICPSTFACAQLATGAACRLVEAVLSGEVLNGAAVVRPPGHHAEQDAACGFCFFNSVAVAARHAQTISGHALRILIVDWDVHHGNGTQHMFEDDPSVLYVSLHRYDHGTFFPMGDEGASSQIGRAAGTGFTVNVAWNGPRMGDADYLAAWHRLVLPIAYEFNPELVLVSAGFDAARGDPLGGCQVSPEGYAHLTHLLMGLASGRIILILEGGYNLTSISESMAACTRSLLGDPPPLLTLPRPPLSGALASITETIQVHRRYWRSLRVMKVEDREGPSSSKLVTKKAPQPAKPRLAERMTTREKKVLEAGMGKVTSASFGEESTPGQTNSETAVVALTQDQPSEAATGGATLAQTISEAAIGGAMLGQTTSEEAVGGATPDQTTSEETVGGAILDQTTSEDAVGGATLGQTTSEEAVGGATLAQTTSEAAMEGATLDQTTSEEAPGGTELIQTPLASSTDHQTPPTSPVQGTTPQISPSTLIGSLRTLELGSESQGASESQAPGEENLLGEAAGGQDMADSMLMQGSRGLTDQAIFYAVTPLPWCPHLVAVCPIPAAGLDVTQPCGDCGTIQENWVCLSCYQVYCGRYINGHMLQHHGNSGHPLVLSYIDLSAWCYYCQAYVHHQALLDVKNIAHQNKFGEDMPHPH

[6] = system: SH-SY5Y; test: Neuroprotective activity against 6-OHDA-induced oxidative damage in human SH-SY5Y cells assessed as increase in cell survival at 1 to 10 uM pretreated for 4 hrs followed by 100 uM 6-OHDA stimulation and measured after 24 hrs by MTT assay; type: functional, cell-based; settings: dose 1-10 µM, time 28.0 hrs
[7] = system: SH-SY5Y; test: Neuroprotective activity against H2O2-induced oxidative damage in human SH-SY5Y cells assessed as increase in cell survival pretreated for 4 hrs followed by 200 uM H2O2 stimulation and measured after 24 hrs by MTT assay; type: functional, cell-based; settings: dose 1-10 µM, time 28.0 hrs
[8] = system: PC-12; test: Neuroprotective activity against 6-OHDA-induced oxidative damage in rat PC-12 cells assessed as increase in cell survival at 1 to 10 uM pretreated for 4 hrs followed by 500 uM 6-OHDA stimulation and measured after 24 hrs by MTT assay; type: functional, cell-based; settings: dose 1-10 µM, time 28.0 hrs
[9] = system: PC-12; test: Neuroprotective activity against H2O2-induced oxidative damage in rat PC-12 cells assessed as increase in catalase protein expression at 10 uM pretreated for 4 hrs followed by H2O2 stimulation and measured after 24 hrs by Western blot analysis; type: functional, cell-based; settings: time 28.0 hrs
[10] = system: PC-12; test: Neuroprotective activity against H2O2-induced oxidative damage in rat PC-12 cells assessed as increase in Nrf2 protein expression at 10 uM pretreated for 4 hrs followed by H2O2 stimulation and measured after 24 hrs by Western blot analysis; type: functional, cell-based; settings: time 28.0 hrs
[11] = system: PC-12; test: Neuroprotective activity against H2O2-induced oxidative damage in rat PC-12 cells assessed as SOD activity at 10 uM pretreated for 4 hrs followed by H2O2 stimulation and measured after 24 hrs by WST-8 assay; type: functional; settings: time 28 hrs
[12] = system: PC-12; test: Neuroprotective activity against H2O2-induced oxidative damage in rat PC-12 cells assessed as increase in cell survival pretreated for 4 hrs followed by 800 uM H2O2 stimulation and measured after 24 hrs by MTT assay; type: functional, cell-based; settings: dose 1-10 µM, time 28.0 hrs
[13] = organism: Danio rerio; test: Cognitive improvement ability in scopolamine induced zebrafish alzheimer disease model assessed as improvement in motor activity by measuring increase in total distance of swimming at 20 mg/L pretreated with scopolamine for 30 mins followed by compound addition for 3 mins by T-maze test; type: functional, organism-based
[14] = biological target: Histone deacetylase 1 (Homo sapiens, UniProt Q13547); test: Inhibition of HDAC1 (unknown origin)
Chain of Histone deacetylase 1 (Q13547 whole entry): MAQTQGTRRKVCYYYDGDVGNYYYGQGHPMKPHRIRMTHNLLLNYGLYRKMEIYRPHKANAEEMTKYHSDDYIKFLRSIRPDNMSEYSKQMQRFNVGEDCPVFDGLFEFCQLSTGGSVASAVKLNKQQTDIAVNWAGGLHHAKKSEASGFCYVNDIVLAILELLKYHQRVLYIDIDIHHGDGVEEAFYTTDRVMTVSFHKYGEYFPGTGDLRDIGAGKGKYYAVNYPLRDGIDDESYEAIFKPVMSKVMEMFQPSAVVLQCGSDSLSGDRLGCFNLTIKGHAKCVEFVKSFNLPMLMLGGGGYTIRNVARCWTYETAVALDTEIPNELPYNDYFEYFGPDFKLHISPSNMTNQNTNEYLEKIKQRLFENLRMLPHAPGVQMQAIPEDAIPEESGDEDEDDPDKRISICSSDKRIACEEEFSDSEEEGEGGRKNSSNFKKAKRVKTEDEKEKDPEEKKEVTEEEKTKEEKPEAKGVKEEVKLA

[15] = Neurotoxicity against human SH-SY5Y cells assessed as reduction in cell viability at 10 uM measured after 24 hrs by MTT assay; type: toxicity, cell-based
[16] = Neurotoxicity against rat PC-12 cells assessed as reduction in cell viability at 10 uM measured after 24 hrs by MTT assay; type: toxicity, cell-based; settings: pc-12, 24 h
[17] = Neurotoxicity against human SH-SY5Y cells assessed as cell survival rate at 10 uM measured after 24 hrs by MTT assay relative to control; type: toxicity, cell-based; settings: read-out: Survival
[18] = Neurotoxicity against rat PC-12 cells assessed as cell survival rate at 10 uM measured after 24 hrs by MTT assay relative to control; type: toxicity, cell-based; settings: read-out: Survival

O=C(CCCCCC(=O)N1CCc2c([nH]c3ccccc23)C1)NO
IC50 [1]: 28.4 µM | IC50 [2]: 14.4 µM | Activity [3]: inactive | Activity [4]: inactive

O=C1O[C@H]([C@@H](O)CO)C(O)=C1O [ASCORBIC ACID]
IC50 [1]: 23.8 µM | IC50 [2]: 25.5 µM

O=C(NO)c1cccc(CN2CCc3[nH]c4ccccc4c3C2)c1
IC50 [1]: 24.3 µM | IC50 [2]: 16.9 µM

O=C(NO)c1ccc(C2NCCc3c2[nH]c2ccccc32)cc1 (centres undefined)
IC50 [5]: > 1000 nM

CN1CCc2c(c3ccccc3n2Cc2ccc(C(=O)NO)cc2)C1 [TUBASTATIN A]
Activity [6]: Active | IC50 [1]: 28.2 µM | IC50 [2]: 12.1 µM | Activity [7]: Dose-Dependent Effect | Activity [8]: Active | Activity [9]: Active | Activity [10]: Active | Activity [11]: 13.7 U/mg | Activity [12]: Dose-Dependent Effect

O=C(NO)c1ccc(CN2CCc3[nH]c4ccc(F)cc4c3C2)cc1
IC50 [1]: 21 µM | IC50 [2]: 9.96 µM

COc1ccc2c3c1O[C@H]1C[C@@H](O)C=C[C@@]31CCN(C)C2
Activity [13]: Active

O=C(NO)c1ccc(CN2CCc3c([nH]c4ccccc34)C2)cc1
IC50 [1]: 35.6 µM | IC50 [2]: 11.4 µM | IC50 [5]: 13.8 nM | IC50 [14]: 16.5 µM

O=C(/C=C/c1ccc(CN2CCc3[nH]c4ccccc4c3C2)cc1)NO
Activity [15]: Toxic | Activity [16]: Toxic

O=C(NO)c1ccc(C2c3[nH]c4ccccc4c3CCN2Cc2ccccc2)cc1 (centres undefined)
IC50 [5]: > 1000 nM

Cc1ccc2[nH]c3c(c2c1)CN(Cc1ccc(C(=O)NO)cc1)CC3
IC50 [1]: 28.2 µM | IC50 [2]: 9.97 µM

O=C(NO)c1ccc(CNC(=O)[C@@H]2Cc3c([nH]c4ccccc34)[C@@H](c3ccc(Cl)cc3)N2CC2CC2)cc1
IC50 [14]: 0.494 µM

O=C(CCCCCCC(=O)Nc1ccccc1)NO [VORINOSTAT]
viability at 24 h, 10 µM [17]: < 80% | viability at 24 h, 10 µM [18]: < 80%

O=C(CCCCCCC(=O)N1CCc2c([nH]c3ccccc23)C1)NO
Activity [15]: Toxic | Activity [16]: Toxic

O=C(NO)c1ccc(CN2CCc3[nH]c4ccccc4c3C2)cc1
IC50 [1]: 26.5 µM | IC50 [2]: 17.2 µM

COc1ccc2[nH]c3c(c2c1)CCN(Cc1ccc(/C=C/C(=O)NO)cc1)C3
IC50 [5]: 19.7 nM | Activity [15]: Toxic | IC50 [14]: 0.0108 µM | Activity [16]: Toxic

COc1ccc2[nH]c3c(c2c1)CCN(Cc1ccc(C(=O)NO)cc1)C3
IC50 [1]: 29.1 µM | IC50 [2]: 12.6 µM | IC50 [5]: 16.4 nM | IC50 [14]: 23.7 µM

O=C(NO)c1ccc(CC(=O)N2CCc3c([nH]c4ccccc34)C2)cc1
IC50 [1]: 30.3 µM | IC50 [2]: 13.8 µM | Activity [3]: inactive | Activity [4]: inactive
